From patent publication US20020165168A1, “USE OF SUGAR DERIVATIVES AS ANTIMICROBIAL, ANTIMYCOTIC AND/OR ANTIVIRAL ACTIVE SUBSTANCES” (priority 1995, published 2002)

What follows are molecules tested on Corynebacterium xerosis (assay: action against Corynebacterium xerosis). Details: qualitative statement, no method or data given.

Structure (SMILES) | action against Corynebacterium xerosis
CCCCCCCCOC1O[C@H](CO)[C@@H](O)[C@H](O)[C@H]1O (stereo partly drawn) [octylglucopyranoside] | very good action
CCCCCCCCCCCCO[C@@H]1O[C@H](CO)[C@@H](O)[C@H](O)[C@H]1O [β-D-dodecylglucopyranoside] | very good action
CCCCCCCCCO[C@@H]1O[C@H](CO)[C@@H](O)[C@H](O)[C@H]1O [β-D-nonylglucopyranoside] | very good action
